In US10588962B2, “Carbohydrate-glycolipid conjugate vaccines” (Max-Planck-Gesellschaft zur Förderung der Wissenschaften …, priority 2012, dated 2020):

Assay: Immunogenic activity of further glycolipids conjugated to PS4
Conditions: glycolipid conjugated to PS4

Question: For “(2S,3S,4R)-1-(6-(Carbonyl-1-ethyl-2-(tri(1-ethanoyl)1-ethanoyl-2-amino)-α-D-galactopyranosyl)-2-hexacosanoylaminooctadecane-3,4-diol [Compound 27a]”, which immunogenic activity is on record?
Answer: showed immunogenic activity
